# Experiments:
# Format in all cases: cell-based
# MEFs = assay: Apoptosis by FACS in MEFs; details: MEFs (normal non-cancer cells), 72 h; n=3
# Procedure: PRMT5 (P) or control (C) non-targeting siRNA was transfected into MEFs and cells harvested at 72 h post-transfection as indicated. Cell extracts were immunoblotted with anti-PRMT5 and anti-E2F-1. Actin levels served as the loading control.
# MEFs were treated as described in 6c and thereafter analysed by FACS. In FIG. 6d the black bar represents the effect of C siRNA, and clear bar the effect of P siRNA; n=3.
# (§1) Cells were transfected with the indicated expression vectors together with pBB14-GFP (for 48 h) to monitor transfection efficiency or siRNA (for 48 h or 72 h) with or without treatment of the DNA damage agent for the last 16 h. Then, cells were fixed and stained with propidium iodide and analyzed by Flow Cytometry.
# HCT116 p53−/− = assay: Apoptosis (sub-G1) by FACS in HCT116 p53−/− cells; details: siRNA 25 nM, 72 h, n=3
# Procedure: (§2) PRMT5 (P) or control (C) non-targeting siRNA (25 nM) was transfected into HCT116 p53+/+ (i), HCT116 p53−/− (ii) or U2OS (iii) cells and the cells were harvested 72 h post-transfection and analysed by FACS. The graph represents the actual number of sub-G1 cells in the indicated conditions, and the immunoblot the level of PRMT5 and actin control; n=3.
# as §1
# C33A cells = assay: Apoptosis upon PRMT5 depletion in C33A cells; details: PRMT5 vs control siRNA
# Procedure: (§3) The graph (i) represents the relative number of sub-G I cells (compared to the control treatment) in the indicated conditions; and (ii) the level of PRMT5 and E2F-1; n=3.
# Cleaved PARP is indicated by the arrow.
# as §1
# PRMT5 [1] = assay: PRMT5 depletion by siRNA in U2OS cells, E2F-1 and E2F target gene levels
# Source text: The depletion of PRMT5 co-incided with increased levels of E2F-1 protein (FIG. 3c), which is compatible with the increased level and stability of the KK and KKK mutants (FIG. 3b). […] Extracts were immunoblotted with anti-PRMT5 and E2F-1, and GAPDH levels served as a loading control.
# Further, E2F-1 RNA was higher under conditions of PRMT5 depletion, contrasting with the control siRNA treatment. […] RNA was extracted from cells treated as described above, and RNA levels of E2F-1 examined. RNA levels of 18S and GAPDH served as controls. […] Extracts were immunoblotted with anti-PRMT5, E2F-1, p73, Chk2, Chk1 and Cdc2 as indicated. Levels of GAPDH served as the loading control.
# FIGS. 6f and 6g address the role of one of the key E2F target genes in the PRMT5 dependent apoptosis, i.e. p73. […] PRMT5 (P) or control (C) siRNA was transfected into U2OS cells and cells harvested at 72 h post-transfection. Both RNA (i) and protein (ii) levels were measured, as indicated, for p73, 18S and GAPDH (i) and PRMT5, E2F-1, p73 and GAPDH (ii). […] This experiment supports activation of the E2F1 pathway leading to apoptosis upon PRMT5 knockdown, i.e. PRMT5 normally acts to suppress activation of the pathway.
# Oligofectamine transfection reagent (Invitrogen) was used to transfect cells with siRNAs for 72 h. siRNA treatment of cells was carried out using siRNA non-targeting (Dharmacon) as control or PRMT5 (5′ […] (SEQ ID NO:1)). p73 smart pool siRNA was from Dharmacon. siRNA treatment was for 72 h at 50 nM.
# [2] = system: p73-luciferase or cyclinE-luciferase; assay: Reporter assay with E2F-responsive promoters; details: U2OS cells, PRMT5 vs control siRNA, 48 h
# Procedure: To further explore the role of arginine methylation in the transcription properties of E2F-1, wild-type E2F-1 was compared with the KK and KKK mutants in a reporter-based transfection assay, using E2F-responsive promoters derived from E2F target genes. The assay was performed under conditions in which each mutant protein was expressed at an equivalent level to wild-type E2F-1 (FIG. 4aii and bii), thus ruling out any difference in activity that could be attributed to protein levels. […] FIGS. 4a and b show the transcription properties of wild-type E2F-1, KK and KKK mutants. U2OS cells were transfected with expression vectors encoding WT or mutant E2F-1 protein, together with p73-luciferase (A) or cyclinE-luciferase (B) for 48 h as indicated, and pCMV-βgal to monitor transfection efficiency. Relative luciferase activity (luciferase/βgal) is shown together with expression level of ectopic proteins; n=3. […] PRMT5 (P) or control (C) non-targeting siRNA was transfected into U2OS cells together with p73-luciferase (i) or cyclinE-luciferase (ii) for 48 h, together with pCMV-βgal to monitor transfection efficiency. Relative luciferase activity is shown together with expression level of the ectopic proteins.
# Cells were transfected with expression vectors (1 μg) encoding WT or the mutant E2F-1 proteins as indicated with E2F responsive luciferase reporters, namely p73-luciferase or cyclinE-luciferase, together with pCMV-βgal to monitor transfection efficiency. Cells were harvested, lysed 48 h post-transfection and luciferase activity measured as previously described (Janson et al 2008).
# U2OS cells = assay: Apoptosis (sub-G1) by FACS in U2OS cells; details: n=3
# Procedure: Whether arginine methylation influences E2F-1-dependent apoptosis was investigated by comparing the ability of wild-type E2F-1 to the KK and KKK mutants to induce cells with a sub-G1 DNA content (Stevens et al 2003). […] U2OS cells were transfected with expression vectors encoding wild-type E2F-1, KK and KKK as indicated for 48 h and analysed by FACS as described. The graph represents the relative change in sub-G1 populations compared to the empty vector control treatment; n=2.
# as §3, §2
# PRMT5 (P), E2F-1 (E) or control (C) non-targeting siRNA was transfected into U2OS cells and harvested 72 h post-transfection and analysed by FACS as described.
# as §1
# HCT116 p53+/+ = assay: Apoptosis (sub-G1) by FACS in HCT116 p53+/+ cells; details: siRNA 25 nM, 72 h, n=3
# Procedure: as §2, §1
# PRMT5 [3] = target: PRMT5 (Homo sapiens, UniProt O14744); assay: Ubiquitination assay in U2OS cells after siRNA; design: The indicated GST proteins were incubated with U2OS cell lysate; endogenous in cells; host or cells: U2OS; details: PRMT5 vs control siRNA, MG132 20 nM 4 h
# PRMT5 (Homo sapiens, UniProt O14744), sequence (O14744 whole entry): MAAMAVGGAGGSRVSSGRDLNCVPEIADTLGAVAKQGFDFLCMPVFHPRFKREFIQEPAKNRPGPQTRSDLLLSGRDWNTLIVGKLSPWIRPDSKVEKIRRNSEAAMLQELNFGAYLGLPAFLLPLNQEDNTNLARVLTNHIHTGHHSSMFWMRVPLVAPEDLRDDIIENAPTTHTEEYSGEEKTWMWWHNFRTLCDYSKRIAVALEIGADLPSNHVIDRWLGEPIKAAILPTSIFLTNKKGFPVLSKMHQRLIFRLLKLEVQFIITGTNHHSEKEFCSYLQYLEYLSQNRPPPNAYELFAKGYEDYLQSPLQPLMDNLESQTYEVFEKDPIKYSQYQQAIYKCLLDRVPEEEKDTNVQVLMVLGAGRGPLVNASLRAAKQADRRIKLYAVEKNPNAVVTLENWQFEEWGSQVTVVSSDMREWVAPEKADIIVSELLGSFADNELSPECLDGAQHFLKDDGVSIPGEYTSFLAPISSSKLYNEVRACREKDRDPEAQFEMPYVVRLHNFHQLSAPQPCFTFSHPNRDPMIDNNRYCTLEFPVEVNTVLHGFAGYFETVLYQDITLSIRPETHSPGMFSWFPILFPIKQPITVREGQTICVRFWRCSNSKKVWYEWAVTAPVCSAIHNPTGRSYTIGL
# Procedure: U2OS cells were transfected with PRMT5 (P) or control (C) siRNA. After 24 h, cells were transfected with expression vectors encoding wild-type (WT) E2F-1 or the KKK mutant (2 μg) and His 6-ubiquitin (4 μg) as indicated. Cells were treated with MG132 ([…]) for 4 h before being collected. Cell lysates and Ni2+ pull-down eluates were analysed as described. Quantitation of ubiquitin signals was performed using ImageJ 1.43u, and the input protein levels are shown underneath.
# Cells were transfected with pcDNA3.1a-ubiquitin (His-tagged) and treated as described. Briefly cells were harvested into 8 M urea, 0.1 M Na2HPO4/NaH2PO4, 0.01 M Tris-HCl, and pH 8.0. Cell lysate was incubated with nickel (Ni^2+-NTA)-agarose beads (Qiagen), 5 mM imidazole and 10 mM β-mercapthoethanol overnight at 4° C. The beads were collected and washed as described (Liu and Warbrick, 2006). Bound proteins were then eluted and assayed by immunoblotting.
# SAOS2 = assay: Apoptosis (sub-G1) by FACS in SAOS2 cells with ectopic E2F-1; details: SAOS2 with wild-type E2F-1 expression vector 1 μg, 72 h; n=3
# Procedure: PRMT5 (P) or control (C) non-targeting siRNA was transfected into SAOS2 together with an expression vector encoding wild-type E2F-1 (1 μg) as indicated, harvested at 72 h and processed as described in (a); n=3. […] This is consistent with the idea that PRMT5 mediates its effects through E2F-1.
# as §1
substance,measurement,setting,value
5′ CCGCUAUUGCACCUUGGAA (SEQ ID NO:1) [PRMT5 siRNA],apoptosis,MEFs,no apoptosis
same,apoptosis (% sub-G1 cells),HCT116 p53−/−,induces apoptosis
same,apoptosis,C33A cells,increased level of apoptosis
same,E2F-1 protein levels,"PRMT5 [1]; 72 h, with or without etoposide 10 μM",increases E2F-1 protein levels
same,"protein levels of E2F target genes (p73, Chk1, Chk2, Cdc2)","PRMT5 [1]; 72 h, with or without etoposide or doxorubicin",induced
same,p73 RNA and protein levels,PRMT5 [1]; 72 h post-transfection,upregulated
same,E2F-1 RNA levels,PRMT5 [1]; contrasting with control siRNA,higher
same,activity of E2F-1 responsive promoters,[2],more active
same,apoptosis (sub-G1 cells),"U2OS cells; U2OS cells, 72 h post-transfection, with or without etoposide 10 μM 16 h",increased level of apoptosis
same,apoptosis (% sub-G1 cells),"U2OS cells; U2OS, siRNA 25 nM, 72 h",induces apoptosis
same,apoptosis (% sub-G1 cells),HCT116 p53+/+,induces apoptosis
same,E2F-1 ubiquitination,PRMT5 [3],affects the ubiquitination of E2F-1
same,apoptosis,SAOS2,enhanced levels of apoptosis
